Experimental data reported in patent publication US9937192B2, “Combination therapy to treat mycobacterium diseases” (priority 2012, dated 2018).
Structures can show the parent of a compound that is named as a salt. Where two headings read alike, the source gives them in different places.

Key:
[1] = system: Mycobacterium tuberculosis; experiment: Mycobacterium tuberculosis Serum Shift MIC Assay (Protocol 5); assay type: cell-based; conditions: ATCC 35801 / ERDMAN
Text: Protocol 5. Protocol for Mycobacterium tuberculosis Serum Shift MIC Assay
Media Prep: • 1. […] It was important that all media and supplements were sterilized prior to MICs. • 2. Prepared all media below and inoculated as described in next section. Tested all compounds against Mtb using each media. • a. […] 7H9+0.2% glycerol+2 g/L dextrose+0.85 g/L NaCl+0.003 g/L catalase (0% FBS). • c. 2×7H9+0.2% glycerol+2 g/L dextrose+0.85 g/L NaCl+0.003 g/L catalase combined with equal volume Fetal Bovine Serum (50% FBS).
Inoculum Prep: • 1. Using BBL Prompt, picked 5-10 well-separated colonies and inoculated 1 ml sterile saline that came in the kit. Typically plates were two to three weeks of age when used for this assay due to the slow growth of this organism in culture. • 2. Vortexed well, then sonicated in water bath for 30 sec providing a suspension of ˜10^8 cells/ml. Actual density could be confirmed by plating out dilutions of this suspension. • 3. Prepared inoculum in each of the three media formulations by diluting the BBL Prompt suspension 1/200 (for example: transferred 0.2 ml of cells to 40 ml of medium) to obtain a starting cell density of […]. • 4. Used 100 μl cells (˜5×10^4 cells) to inoculate each microtiter well containing 1 μl of drug in DMSO (see below).
Drug Dilutions, Inoculation, MIC Determination: • 1. Control drug stocks Isoniazid and Novobiocin were prepared at 10 mM in 100% DMSO while Ciprofloxacin and Rifampin were prepared at 1 mM in 50% DMSO and 100% DMSO, respectively. Prepared dilutions—dispensed 100 μL of the stock solution into the first column of a 96-well plate. Prepared 11-step, 2-fold serial dilutions across the row for each compound by transferring 50 μl from column 1 into 50 μl of DMSO in column 2. Continued to transfer 50 μL from column 2 through column 11 while mixing and changing tips at each column. Left column 12 with DMSO only as a control. • 2. Transferred 1 μl of each dilution into an empty microtiter well prior to the addition of 100 μl of cells. The starting concentration of Isoniazid and Novobiocin was 100 μM after the dilution into medium+cells; the starting concentration of Ciprofloxacin and Rifampin was 10 μM after the dilution into medium+cells. Compound concentrations decreased in 2× steps moving across the rows of the microtiter plate. […] Measured background fluorescence at Excitation 492 nm, Emission 595 nm and returned the plate to the incubator for another 24 hours.
After 24 hours the fluorescence of each well was measured at Excitation 492 nm, Emission 595 nm.
Percent inhibition by a given compound was calculated as follows: Percent inhibition=100−([well fluorescence-average background fluorescence]/[DMSO control−average background fluorescence]×100). […]

M. tuberculosis = experiment: microbe, parasite or virus in culture; assay type: cell-based; conditions: Mycobacterium tuberculosis

Work on CCNC(=O)Nc1nc2cc(-c3cnc(C(C)(C)O)nc3)c(F)c([C@H]3CCCO3)c2[nH]1 [Compound 23A, methanesulfonic acid salt of 1-ethyl-3-[6-fluoro-5-[2-(1-hydroxy-1-methyl-ethyl)pyrimidin-5-yl]-7-[(2R)-tetrahydrofuran-2-yl]-1H-benzimidazol-2-yl]urea] yielded an MIC ([1]; M. tuberculosis Erdman ATCC 35801, read-out: MIC) of 0.03 µg/mL, an MIC ([1]; M. tuberculosis Erdman ATCC 35801 with Mouse Serum) of 0.5 µg/mL and an MIC (M. tuberculosis; GN9, Table 31, Mtb GN9, duplicate values, read-out: MIC) of 0.03 µg/mL. It also gave an MIC (M. tuberculosis; H37RA, read-out: MIC, Broth) of 0.01 µg/mL, an MIC (M. tuberculosis; H37RV, Table 33, M. tuberculosis strain H37Rv, read-out: MIC) of 0.125 µg/mL and an MIC (M. tuberculosis; Table 32, […], duplicate values, read-out: MIC) of 0.125 µg/mL. The MIC (M. tuberculosis; Table 33, M. tuberculosis strain AH13, read-out: MIC) was 0.5 µg/mL, the MIC (M. tuberculosis; Table 33, M. tuberculosis strain BW9, read-out: MIC) was 0.125 µg/mL and the MIC (M. tuberculosis; Table 33, M. tuberculosis strain H10460, read-out: MIC) was 0.5 µg/mL. It also gave an MIC (M. tuberculosis; Table 33, M. tuberculosis strain MC19062, read-out: MIC) of 0.125 µg/mL and an MIC (M. tuberculosis; Table 33, M. tuberculosis strain W10, read-out: MIC) of 0.125 µg/mL.
